Reference: patent US20240358693A1, “METHODS OF TREATING PAIN” (Aisa Pharma, Inc., priority 2023, published 2024)

System: participants with SSc-RP
Experiment: Scleroderma Health Assessment Questionnaire (SHAQ): disability indices and visual analog scales
Format: in vivo, human
Settings: Day 12 vs baseline; PP Population, Part A; SSc patients; sensitivity analysis
From the text: The standard, validated, patient reported outcome measures tool for SSc patients, the Scleroderma Health Assessment Questionnaire (SHAQ), will be used to assess the participant qualify of life. Details are attached in the Appendix. The participant quality of life will be scored, and a disability index calculated for each questionnaire completed by the patient at Screening and each in-clinic visit. The absolute change in participant quality of life from baseline to the end of each dosing period will be calculated similar to frequency data as before.
The SHAQ includes a Raynaud's VAS, which will be reported at screening and each in-clinic visit. The absolute change in Raynaud-VAS, assessed by the participants response to the SHAQ question ‘In the past 7 days, how much have your Raynaud's interfered with your daily activities?’ at baseline and the end of each dosing period will be calculated similar to frequency data as before.
The SHAQ is used to calculate a Disability Index to assess the participant qualify of life. The eight categories assessed by the Disability Index are 1) dressing and grooming, 2) arising, 3) eating, 4) walking, 5) hygiene, 6) reach, 7) grip, and 8) common daily activities. For each of these categories, patients report the amount of difficulty they have in performing two or three specific activities.
There are four possible responses for the Disability Index questions: • Without any difficulty=0 • With some difficulty=1 • With much difficulty=2 • Unable to do=3. • The highest score reported by the patient for any component question of the eight categories determines the score for that category. • If a component question is left blank or the response is too ambiguous to assign a score, then the score for that category is determined by the remaining completed question(s). • If all component questions are blank or if more than one answer is given, then follow up with the respondent is required. • If the respondent's mark is between the response columns, then move it to the closest one. If it's directly between the two, move it to the higher one.
Each of the disability items on the SHAQ has a companion aids/devices variable that is used to record what type(s) of assistance, if any, the participant uses for his/her usual activities. These variables (see below) are coded as follows: • 0=No assistance is needed. • 1=A special device is used by the patient in his/her usual activities. • 2=The patient usually needs help from another person. • 3=The patient usually needs BOTH a special device AND help from another person.
The scoring variables and scoring rules permit the computation of two disability indices, the Standard Disability Index and the Alternative Disability Index.
This question results in a new set of category scores that are computed by adjusting the score for each category, if necessary, based on the patient's use of an aid or device or assistance for that category. If either devices and/or help from another person are checked for a category, the score is set to “2”, unless the score is already “3” (i.e., scores of “0” or “1” are increased to “2”). For example, if the highest score for the dressing category is “1”, and the patient says they use a device for dressing, the computed category score would be “2”. The sum of the computed categories scores is then calculated and divided by the number of categories answered. This gives a score in the 0 to 3 range.
The aid and device variables are not used to calculate the alternative disability index; it is calculated by adding the scores for each of the categories and dividing by the number of categories answered. This gives a score in the 0 to 3 range.
The standard, validated, patient reported outcome measures tool for SSc patients, the SHAQ, was collected at the time points specified in the study schedules (FIG. 2 and FIGS. 4A and 4B) to assess the participant's quality of life. The SHAQ included a Raynaud's VAS that will also be reported separately.

COCCOC(=O)C1=C(C)NC(C)=C(C(=O)OC/C=C/c2ccccc2)C1c1cccc([N+](=O)[O-])c1 (stereo not drawn) [Pooled Cilnidipine]
SHAQ Alternative Disability Index, Change from Baseline, Max: 0.38
SHAQ Alternative Disability Index, Change from Baseline, Mean: 0.031
SHAQ Alternative Disability Index, Change from Baseline, Median: 0.000
SHAQ Alternative Disability Index, Change from Baseline, Min: −0.13
SHAQ Alternative Disability Index, Change from Baseline, Q1: −0.125
SHAQ Alternative Disability Index, Change from Baseline, Q3: 0.125
SHAQ Alternative Disability Index, Percent Change from Baseline, Max: 100.0%
SHAQ Alternative Disability Index, Percent Change from Baseline, Mean: 9.68%
SHAQ Alternative Disability Index, Percent Change from Baseline, Median: −11.11%
SHAQ Alternative Disability Index, Percent Change from Baseline, Min: −50.0%
SHAQ Alternative Disability Index, Percent Change from Baseline, Q1: −33.33%
SHAQ Alternative Disability Index, Percent Change from Baseline, Q3: 42.86%
SHAQ Visual Analogue Scale - Finger Ulcers, Change from Baseline, Max: 0.40
SHAQ Visual Analogue Scale - Finger Ulcers, Change from Baseline, Mean: −0.643
SHAQ Visual Analogue Scale - Finger Ulcers, Change from Baseline, Median: 0.000
SHAQ Visual Analogue Scale - Finger Ulcers, Change from Baseline, Min: −3.20
SHAQ Visual Analogue Scale - Finger Ulcers, Change from Baseline, Q1: −1.000
SHAQ Visual Analogue Scale - Finger Ulcers, Change from Baseline, Q3: 0.000
SHAQ Visual Analogue Scale - Finger Ulcers, Percent Change from Baseline, Max: 133.3%
SHAQ Visual Analogue Scale - Finger Ulcers, Percent Change from Baseline, Mean: −17.08%
SHAQ Visual Analogue Scale - Finger Ulcers, Percent Change from Baseline, Median: −50.82%
SHAQ Visual Analogue Scale - Finger Ulcers, Percent Change from Baseline, Min: −100.0%
SHAQ Visual Analogue Scale - Finger Ulcers, Percent Change from Baseline, Q1: −81.37%
SHAQ Visual Analogue Scale - Finger Ulcers, Percent Change from Baseline, Q3: 47.22%
SHAQ Visual Analogue Scale - Intestinal Problems, Change from Baseline, Max: 0.60
SHAQ Visual Analogue Scale - Intestinal Problems, Change from Baseline, Mean: −0.863
SHAQ Visual Analogue Scale - Intestinal Problems, Change from Baseline, Median: −0.050
SHAQ Visual Analogue Scale - Intestinal Problems, Change from Baseline, Min: −4.40
SHAQ Visual Analogue Scale - Intestinal Problems, Change from Baseline, Q1: −1.650
SHAQ Visual Analogue Scale - Intestinal Problems, Change from Baseline, Q3: 0.150
SHAQ Visual Analogue Scale - Intestinal Problems, Percent Change from Baseline, Max: 40.0%
SHAQ Visual Analogue Scale - Intestinal Problems, Percent Change from Baseline, Mean: −43.69%
SHAQ Visual Analogue Scale - Intestinal Problems, Percent Change from Baseline, Median: −66.06%
SHAQ Visual Analogue Scale - Intestinal Problems, Percent Change from Baseline, Min: −100.0%
SHAQ Visual Analogue Scale - Intestinal Problems, Percent Change from Baseline, Q1: −100.00%
SHAQ Visual Analogue Scale - Intestinal Problems, Percent Change from Baseline, Q3: 30.00%
SHAQ Visual Analogue Scale - Overall Disease Severity, Change from Baseline, Max: 0.20
SHAQ Visual Analogue Scale - Overall Disease Severity, Change from Baseline, Mean: −1.450
SHAQ Visual Analogue Scale - Overall Disease Severity, Change from Baseline, Median: −1.550
SHAQ Visual Analogue Scale - Overall Disease Severity, Change from Baseline, Min: −3.10
SHAQ Visual Analogue Scale - Overall Disease Severity, Change from Baseline, Q1: −1.850
SHAQ Visual Analogue Scale - Overall Disease Severity, Change from Baseline, Q3: −0.950
SHAQ Visual Analogue Scale - Overall Disease Severity, Percent Change from Baseline, Max: −26.8%
SHAQ Visual Analogue Scale - Overall Disease Severity, Percent Change from Baseline, Mean: −61.10%
SHAQ Visual Analogue Scale - Overall Disease Severity, Percent Change from Baseline, Median: −60.00%
SHAQ Visual Analogue Scale - Overall Disease Severity, Percent Change from Baseline, Min: −100.0%
SHAQ Visual Analogue Scale - Overall Disease Severity, Percent Change from Baseline, Q1: −76.19%
SHAQ Visual Analogue Scale - Overall Disease Severity, Percent Change from Baseline, Q3: −44.12%
SHAQ Visual Analogue Scale - Pain, Change from Baseline, Max: 0.70
SHAQ Visual Analogue Scale - Pain, Change from Baseline, Mean: −0.375
SHAQ Visual Analogue Scale - Pain, Change from Baseline, Median: −0.250
SHAQ Visual Analogue Scale - Pain, Change from Baseline, Min: −2.00
SHAQ Visual Analogue Scale - Pain, Change from Baseline, Q1: −0.750
SHAQ Visual Analogue Scale - Pain, Change from Baseline, Q3: 0.150
SHAQ Visual Analogue Scale - Pain, Percent Change from Baseline, Max: 19.4%
SHAQ Visual Analogue Scale - Pain, Percent Change from Baseline, Mean: −23.98%
SHAQ Visual Analogue Scale - Pain, Percent Change from Baseline, Median: −41.18%
SHAQ Visual Analogue Scale - Pain, Percent Change from Baseline, Min: −55.6%
SHAQ Visual Analogue Scale - Pain, Percent Change from Baseline, Q1: −53.33%
SHAQ Visual Analogue Scale - Pain, Percent Change from Baseline, Q3: 11.54%
SHAQ Visual Analogue Scale - Raynaud’s, Change from Baseline, Max: 1.50
SHAQ Visual Analogue Scale - Raynaud’s, Change from Baseline, Mean: −0.438
SHAQ Visual Analogue Scale - Raynaud’s, Change from Baseline, Median: −0.600
